# Assay results taken from BindingDB's records for doi:10.1016/0960-894X(96)00012-1 (1996).
# Biological target: T1, Acetylcholinesterase (Bos taurus, UniProt P23795)
# T1 sequence (P23795 whole entry): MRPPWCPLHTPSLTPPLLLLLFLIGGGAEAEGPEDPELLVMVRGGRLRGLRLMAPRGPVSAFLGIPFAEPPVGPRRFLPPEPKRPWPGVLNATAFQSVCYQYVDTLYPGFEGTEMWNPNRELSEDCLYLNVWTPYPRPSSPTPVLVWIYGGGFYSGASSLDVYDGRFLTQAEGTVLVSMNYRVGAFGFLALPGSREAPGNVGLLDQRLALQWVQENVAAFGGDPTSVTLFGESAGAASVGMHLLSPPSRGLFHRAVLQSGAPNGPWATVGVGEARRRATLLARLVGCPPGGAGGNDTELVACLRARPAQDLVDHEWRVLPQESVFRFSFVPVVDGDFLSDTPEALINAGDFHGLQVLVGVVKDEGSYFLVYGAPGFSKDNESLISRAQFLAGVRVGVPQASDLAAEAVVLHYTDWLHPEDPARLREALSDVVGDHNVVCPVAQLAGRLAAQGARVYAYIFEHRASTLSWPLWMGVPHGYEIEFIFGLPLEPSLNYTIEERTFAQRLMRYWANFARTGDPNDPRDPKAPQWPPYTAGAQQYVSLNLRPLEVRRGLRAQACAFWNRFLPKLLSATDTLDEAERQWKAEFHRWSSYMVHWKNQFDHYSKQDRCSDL
# Assay: Kinetic constant for inhibition of fetal bovine serum acetylcholinesterase
# Conditions: for kon: read-out: kon (M-1-s-1)
Compound,kon [M⁻¹ s⁻¹],kon (M-1-s-1)
"C/C=C1\C2C=C(C)C[C@]1(N)c1ccc(=O)[nH]c1C2(C)C [(R)-1-Amino-13-ethylidene-8,8,11-trimethyl-6-aza-tricyclo[7.3.1.0*2,7*]trideca-2(7),3,10-trien-5-one]",0.013,–
C/C=C1\[C@H]2C=C(C)C[C@@]1(N)c1ccc(=O)[nH]c1C2 [Huperzine A],0.057,0.05667 M-1-s-1
